Assay [1] addresses T1, rat α3β4 nAChR (Rattus norvegicus, UniProt P04757+P12392). The assay can be described thus: Competition binding with [^125I]AT-1012 as radioligand, HEK cell membranes.
Assay [2] has as its target T2, human α3β4α5 nAChR (Homo sapiens, UniProt P30926+P32297). The description is as above.
In assay [3] the target is rat α4β2 nAChR (Rattus norvegicus, UniProt P09483+P12390). The assay can be described thus: Competition binding with [^3H]epibatidine as radioligand, HEK cell membranes.
Assay [4] concerns the target T1, rat α3β4 nAChR. The description is as above.
The target in assay [5] is T2, human α3β4α5 nAChR. The assay is classed as binding.
For assay [6], the target named is α7 nAChR (Homo sapiens, UniProt P36544). The assay can be described thus: Binding at α7 nAChR.
Setting [7] is: radioligand [^125I]AT-1012, rat α3β4 nAChR, average ± SD.
[8] abbreviates: radioligand [^125I]AT-1012, human α3β4α5 nAChR, average ± SD.
Where [9] appears, read: read-out: Binding affinity (Ki).

Read-outs that look alike come from different tables or passages of the source.

What is called Ki is a dissociation constant, usually derived from enzyme kinetics or from competition with a known ligand. Take `CNC1(C)C2CCC(C2)C1(C)C` (stereo not drawn) [Mecamylamine]: in assay [1] (rat α3β4 nAChR), the “Inhibition of [^125I]AT-1012 binding” value is reported as “do not inhibit”. Further, the “Competition with [^125I]AT-1012 at the human α3β4α5 nAChR” value in assay [2] is reported as “do not compete”. Also, in assay [3], the Ki was over 10000 nM.

The Hill coefficient is the slope factor of the fitted curve. As to `CN1C2CCCC1CC(Nc1ccccc1Br)C2` (stereo not drawn) [AT-1001], the Hill coefficient in assay [1] (setting [7]) is 0.94±0.04; in assay [4], 0.87±0.19; in assay [2] (setting [8]), 0.95±0.05; in assay [3], 0.97±0.11; in assay [5], 0.82±0.04. For the same compound, the Ki in assay [3] (setting [9]) worked out at 263 ± 9.3 nM.

For the compound `Clc1ccc(C2CC3CCC2N3)cn1` (stereo not drawn) [Epibatidine], the Hill coefficient is given as 0.89±0.01 in assay [1] (setting [7]), 1.00±0.06 in assay [4], 0.88±0.02 in assay [2] (setting [8]) and 0.98±0.02 in assay [5].

In the case of `COCC[C@H]1CC2CN3CCc4c([nH]c5ccccc45)[C@](C(=O)OC)(C2)[C@H]13` [Compound 18-MC, 18-methoxycoronaridine], the Ki in assay [1], in assay [4] and in assay [3] was over 10000 nM each time. Further, the “Inhibition of [^125I]AT-1012 binding” value in assay [1] (rat α3β4 nAChR) is reported as “do not inhibit”. Besides, in assay [2], the “Competition with [^125I]AT-1012 at the human α3β4α5 nAChR” value was “do not compete”.

Turning to `CN1CCC[C@H]1c1cccnc1` [Nicotine], the Hill coefficient is recorded as 467±48 (0.68±0.02) in assay [1]; 1.08±0.12 in assay [4] (radioligand [^3H]epibatidine, rat α3β4 nAChR, average ± SD); 1305±219 (0.75±0.05) in assay [2]; 0.95±0.07 in assay [3] (radioligand [^3H]epibatidine, rat α4β2 nAChR, average ± SD); 0.91±0.04 in assay [5] (radioligand [^3H]epibatidine, human α3β4α5 nAChR, average ± SD).

On to `CN1[C@@H]2CCC[C@H]1CC(Nc1ccccc1I)C2` (stereo partly drawn) [AT-1012], for which the Hill coefficient is listed as 1.03±0.01 in assay [1] (setting [7]), 0.77±0.09 in assay [4], 0.96±0.09 in assay [2] (setting [8]) and 0.88±0.02 in assay [3]. In assay [6], the “Selectivity versus the α7 nAChR” value is given as “greater than 100 fold”. The Ki in assay [4] (setting [9]) was 1.3 ± 0.16 nM; in assay [2] (read-out: Binding affinity (Ki) at human α3β4α5 nAChR, radioligand [^125I]AT-1012, average ± SD) it was 0.68 ± 0.06 nM; in assay [3] (setting [9]) it was 142 ± 2 nM; in assay [5] (read-out: Binding affinity (Ki) at human α3β4α5 nAChR), 1.08 ± 0.05 nM. The “Binding selectivity for the α3β4 over α4β2 nAChR” value in assay [3] is reported as “over 100 fold”.

For the origin of these results see article PMC3866371 (Neuropharmacology, 2013).
